Laboratory results taken from PubChem BioAssay (NCI).
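All cell lines were grown in 96-well plates and treated with compound for 48 hours. GI50: concentration for 50% inhibition of growth. TGI denotes the concentration required for complete inhibition of growth.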

Key:
Assay in all cases: growth of human tumour cells (NCI), 48 h
HCC-2998 colon = test system: HCC-2998 colon
HL-60(TB) leukemia = test system: HL-60(TB) leukemia
RXF 393 renal = test system: RXF 393 renal
SF-295 CNS = test system: SF-295 CNS
HCT-116 colon = test system: HCT-116 colon
DU-145 prostate = test system: DU-145 prostate
SK-OV-3 ovarian = test system: SK-OV-3 ovarian
NCI-H23 lung = test system: NCI-H23 lung
SF-539 CNS = test system: SF-539 CNS
SF-268 CNS = test system: SF-268 CNS

SMILES | GI50 (HCC-2998 colon) | TGI (HCC-2998 colon) | GI50 (HL-60(TB) leukemia) | TGI (HL-60(TB) leukemia) | GI50 (RXF 393 renal) | TGI (RXF 393 renal) | GI50 (SF-295 CNS) | TGI (SF-295 CNS) | GI50 (HCT-116 colon) | TGI (HCT-116 colon) | GI50 (DU-145 prostate) | TGI (DU-145 prostate) | GI50 (SK-OV-3 ovarian) | TGI (SK-OV-3 ovarian) | GI50 (NCI-H23 lung) | TGI (NCI-H23 lung) | GI50 (SF-539 CNS) | TGI (SF-539 CNS) | GI50 (SF-268 CNS) | TGI (SF-268 CNS)
CCN(CC)c1ccc2c(c1)Oc1nc(N)c(C#N)c(N)c1C2Sc1ccc(OC)cc1 (centres undefined) | 1.81 µM | 3.43 µM | 2.28 µM | 6.44 µM | 1.88 µM | 3.35 µM | 1.93 µM | 3.6 µM | 1.65 µM | 3.12 µM | 1.82 µM | 3.25 µM | 1.92 µM | 3.38 µM | 1.52 µM | 3.02 µM | 1.64 µM | 3.04 µM | 1.85 µM | 3.58 µM
OC(COc1ccc(F)cc1)Cn1cnc2c(Cl)ncnc21 (centres undefined) | 19.3 µM | 42.3 µM | 36.3 µM | > 100 µM | 1.78 µM | 44.4 µM | > 100 µM | > 100 µM | > 100 µM | > 100 µM | > 100 µM | > 100 µM | > 100 µM | > 100 µM |  |  | > 100 µM | > 100 µM | 97.4 µM | > 100 µM
COC1=CC(=O)C(OC)=C(OC)C1=O | > 100 µM | > 100 µM | 2.92 µM | 8.73 µM | 17.1 µM | 30.9 µM | 17.8 µM | 33.5 µM | 16 µM | 29.6 µM | 16 µM | 29.7 µM | 72.9 µM | > 100 µM | 14.9 µM | 30 µM | 16.5 µM | 30.9 µM | 17.1 µM | 30.9 µM
CC(C)CC(=O)Nc1n[nH]c2c1CN(C(=O)C1CCN(C)CC1)C2(C)C | 1.17 µM | > 10 µM | 0.513 µM | 4.97 µM | 1.22 µM | 4.04 µM | 1.35 µM | > 10 µM | 0.362 µM | > 10 µM | 1.6 µM | > 10 µM | 2.53 µM | > 10 µM | 0.352 µM | 5.4 µM | 1.78 µM | 8.99 µM | 1.9 µM | > 10 µM
Nc1ccccc1NC(=O)c1ccc(CCCC(=O)Nc2ccc(C3CC3N)cc2)cc1 (centres undefined) | 1.72 µM | 5.65 µM | 0.725 µM | 65.2 µM | 1.65 µM | 4.1 µM | 1.96 µM | 9.43 µM | 0.375 µM | 16 µM | 2.66 µM | 18.5 µM | 2.15 µM | 42.4 µM | 2.29 µM | 33.8 µM | 0.972 µM | 70.9 µM | 1.83 µM | 23 µM
Cc1cc(Nc2c3ccccc3nc3ccccc23)ccc1NS(C)(=O)=O | 5.94 µM | 20.7 µM | 3.67 µM | 12.1 µM | 3.46 µM | 16 µM | 4.26 µM | 23.4 µM | 3.12 µM | 11.6 µM | 4.87 µM | 19.9 µM | 6.28 µM | 20.1 µM |  |  | 3.74 µM | 14.9 µM | 4.66 µM | 19.2 µM
COc1cc(Nc2ncc(F)c(Nc3ccc4c(n3)NC(=O)C(C)(C)O4)n2)cc(OC)c1OC | > 100 µM | > 100 µM | > 10 µM | > 10 µM | 0.418 µM | 5.89 µM | 4.4 µM | > 10 µM | > 100 µM | > 100 µM | > 10 µM | > 10 µM |  | > 100 µM | 6.29 µM | > 10 µM | 0.916 µM | 9.38 µM | 3.6 µM | > 10 µM
O=C(O)c1cc2ccccc2c(N=Nc2cc(C(F)(F)F)ccc2Cl)c1O |  | > 100 µM |  | > 100 µM |  | > 100 µM |  | > 100 µM |  | > 100 µM |  | > 100 µM |  | > 100 µM |  | > 100 µM |  | > 100 µM |  | > 100 µM
CN(C)c1ncc(-c2ccc(C(F)(F)F)cc2)c(NC2CCCCCC2)n1 | 13.8 µM | 28.8 µM | 15 µM | 34 µM | 10.8 µM | 27.2 µM | 17.5 µM | 37.4 µM | 10.4 µM | 53.4 µM | 27.1 µM | > 100 µM | 29 µM | 95.4 µM | 17.3 µM | 57.3 µM | 21.7 µM | 55.2 µM | 22.7 µM | 96.1 µM
O=Cc1ccc(-c2ccc(-c3nc4ccccc4o3)cc2)s1 | 45.2 µM | > 100 µM | 12.7 µM | > 100 µM | 49.4 µM | > 100 µM | 24.2 µM | 87.8 µM | 19.3 µM | 42.6 µM | 26.3 µM | > 100 µM | 30.8 µM | 99.5 µM | 30.2 µM | > 100 µM |  |  | 28.4 µM | 81.5 µM
Cc1nc(CN2CCCCC2)c(O)c(=O)[nH]1 |  |  |  | > 100 µM |  | > 100 µM |  | > 100 µM |  | > 100 µM |  | > 100 µM |  | > 100 µM |  | > 100 µM |  | > 100 µM |  | > 100 µM
COc1ccc(/C=C2\CC(C)CC3C2=NN(C(C)=O)C3c2ccc(OC)cc2)cc1 (centres undefined) | 17.5 µM | 40 µM | 13.7 µM | 61 µM | 27.2 µM | > 100 µM | 18.2 µM | 41.8 µM |  |  | 25.7 µM | 78.1 µM | 28.7 µM | > 100 µM | 19.6 µM | 45.2 µM | 19 µM | 38.1 µM | 20.8 µM | 53.2 µM
CCN(CC)CCCC(C)Nc1nc(C)cc(Nc2ccc3nc(C)cc(N)c3c2)n1 (centres undefined) | 26.9 µM | 82.9 µM |  |  | 55.1 µM | > 100 µM | 0.0287 µM | 28.7 µM | 32.4 µM | > 100 µM | 42.4 µM | > 100 µM | > 100 µM | > 100 µM | 32.1 µM | > 100 µM | 20.8 µM | 43.6 µM | 22.1 µM | 50.9 µM
COc1ccc(C[C@@H]2NC[C@@H](O)[C@@H]2OC(C)=O)cc1 | 2.19 µM |  | 1.72 µM |  |  | 0.0674 µM | 6.7 µM | 90 µM | 2.92 µM |  |  | 0.0947 µM |  |  | 2.76 µM |  | 9.48 µM | > 100 µM | 4.37 µM | 
